In paper PMC8145938, “Triphenilphosphonium Analogs of Chloramphenicol as Dual-Acting Antimicrobial and Antiproliferating Agents” (Antibiotics, 2021):

Columns and labels:
[1] = test system: ribosome stalling on trpL mRNA in a cell-free translation system; assay: toeprinting (primer extension inhibition) assay on trpL mRNA; type: biochemical; conditions: trpL mRNA template, 30 μM compound
Excerpt: To investigate the mechanism of action of CAM-C10-TPP and CAM-C14-TPP in the translation process, a primer extension inhibition assay (toeprinting) was used. This method allows for the unambiguous identification of drug-induced ribosome stalling sites along the mRNA, with single-nucleotide precision. This technique is also used to determine the context-specificity of antibiotic action. For this experiment, trpL mRNAs were chosen as the template, as in the pDualrep2 reporter system. […] Compared to the results obtained previously for CAM-C4-TPP using rst1 and rst2 mRNA templates, more unambiguous results were obtained using a trpL mRNA template. The main drug-induced ribosome stalling sites are different for CHL and CAM-Cn-TPP, and there are also CAM-Cn-TPP-specific stalling positions.
The toeprinting assay was carried out using trpL mRNA as a template, as described in [73], and the reactions were preincubated for 5 min with 30 μM of the tested compound.

B. subtilis cells = assay: membrane potential by DiS-C3-(5) fluorescence; type: cell-based, Bacillus subtilis
Excerpt: Thus, we further examined the effect of CAM-Cn-TPP on the bacterial membrane potential of B. subtilis. In particular, the membrane potential of B. subtilis can be estimated from the fluorescence of the potential-sensitive dye, DiS-C3-(5), by measuring the changing fluorescence. The potential-dependent accumulation of the dye inside the bacterial cell causes quenching and leads to a decrease in fluorescence. Under the influence of substances that reduce the membrane potential, the dye is released and the fluorescence increases. […] Therefore, the action of CAM-Cn-TPP may have a double effect on bacterial cells and be based on the depolarization of the bacterial membrane by analogy with the mechanism of action of Cn-TPP [17].
The membrane potential of B. subtilis was estimated by measuring the fluorescence of the potential-dependent probe, DiS-C3-(5). B. subtilis from the overnight culture were seeded into a fresh LB medium, followed by growth for […], until reaching the optical density of 0.8 at 600 nm. Then, the bacteria were diluted 20-fold in a buffer containing 100 mM of KCl and 10 mM of Tris, pH 7.4. The fluorescence was measured at 670 nm (excitation at 630 nm) using a Fluorat-02-Panorama fluorimeter.

[2] = test system: MDA-MB-231 and BT-549 TNBC-sensitive and chemoresistant cells; assay: cancer cell proliferation / viability assay (MTT); type: cell-based; conditions: 3 days treatment
Excerpt: We recently provided in vivo [67] and in vitro [68] evidence that certain bactericidal antibiotics suppress tumor growth by inducing mitochondrial dysfunction. […] These cells differ from the corresponding parental cells and display a different response to the same microenvironmental stimuli, allowing them to reduce their proliferating rate and survive chemotherapeutic treatment. Here, we tested the abovementioned CAM-TPP derivatives on chemoresistant triple negative breast cancer (TNBC) cell models, as well as on corresponding CSC-like spheroid cells. We created several relevant models based on TNBC cell lines, particularly MDA-MB-231 and BT-549, to determine their resistance to cyclophosphamide. To create CSC-like cells, parental cells were resuspended in nonadherent conditions to form tumorspheres.
The MDA-MB-231 (RRID: CVCL_0062) and BT-549 (RRID: CVCL_1092) cell lines were purchased from ATCC and cultured in DMEM/F12 (Gibco, Life Technologies, 31330-038) supplemented with 10% FBS, 1% Pen-Strep, 1% Sodium Pyruvate, and 1% L-glutamine. Chemoresistant cell lines were established with continuous treatment for 6 months with the anticancer therapeutic agent, cyclophosphamide (Rcyclo), as previously described. These cell lines were authenticated using short tandem repeat (STR) profiling within the last three years. […] The relative numbers of tumourspheres per well were counted manually. […]
The survival assay was performed essentially as described earlier. […] The absorbance was measured at 570 nm in Bio Spec 1601, Shimadzu spectrometer. […] The results were expressed as the means ± SEM. The data were analyzed using the GraphPad Prism 7 PRIZM computer software under the license of the Statistical Department (Vall’ d Hebron Hospital, Barcelona, Spain).

E. coli 70S ribosomes = test system: E. coli 70S ribosomes; design: method as in PMID 33916420; conditions: displacement of BODIPY-ERY from 70S ribosomes; read-out: apparent dissociation constant (KDapp); cited from earlier work

SMILES: O=C(CCCC[P+](c1ccccc1)(c1ccccc1)c1ccccc1)N[C@H](CO)[C@H](O)c1ccc([N+](=O)[O-])cc1 [CAM-C4-TPP]
- drug-induced ribosome stalling site [1]: blocked the ribosome progression at Val6 (Figure 2D, red arrowhead) and slightly blocked it at Ile4
- concentration at which the compound takes effect on membrane potential (B. subtilis cells): ≥ 10 µM
- effect on proliferation of TNBC cell lines [2]: but not CAM-C4-TPP, significantly reduced the proliferation of TNBC cell lines
- Kd (E. coli 70S ribosomes): 610 ± 70 nM
